The record followed here is patent EP0376166A1, “Condensed quinoline system compound and process of preparation thereof” (MECT CORPORATION, priority 1988, dated 1990).

One experiment relates to KB Cell. Briefly: Inhibition of multiplication (growth) of KB cells, in vitro. The experiment is classed as cell-based, human. The settings on record: Homo sapiens, 72 h, concentration for 50% growth inhibition vs control, compound added Day 1, cells counted Day 4, read-out: Conc.(ED50). As for the experimental part:
KB cells, carcinomatous cell tumors, were transferred to in vitro floatation incubator systems, and added respectively with compounds of Examples 1 to 33. The results of cultivation added with these compounds were compared with the results of the control which was not added with any compound.
Cell used: KB Cell (Originating from human mouth epidermal cancer) Culture medium: Eagles minimal essential medium (MEM) supplemented with 10% calf serum Cultivation: 37°C carbon dioxide gas incubator (5% CO₂)
Day 0: KB cells were diluted in the culture medium to adjust the KB cell density to 2 x 10⁴/ml. Three ml of the cell suspension was inoculated in each of 60 mm plastic dishes. Two dishes per standard dosage were used. Day 1: Test compound was added to the medium so that the final concentrations were set to 100, 30, 10, 3 and 1 µg/ml. Day 4: Cells were scraped off from the dish using trypsin, and the cell number was countered using a Corter counter.
In generally accordance with the stipulations set forth by the National Cancer Institute (NCI), U.S.A., the concentration of compound necessary for exerting 50% growth inhibition (ED₅₀) compared to the control was determined. A compound was judged as effective when ED₅₀ was less than 4 µg/ml.

The subject of another experiment is P-388. Briefly: Prolongation of life span in P-388 implanted mice. The experiment is classed as in vivo, CDF mouse. As to conditions: for response vs control in vivo at 3.12 mg/kg: dosage 3.12 mg/kg; for response vs control in vivo at 6.25 mg/kg: dosage 6.25 mg/kg; for cure: cured mice per group of 6. As for the experimental part: Animal used: CDF mouse (6 mice/group) Tumor: P-388 Number of implanted cells: 10⁶ cells/mouse Implanted site: i.p. Day of administration: Day 1 and Day 5 Dosage: LD₅₀ or 400 mg/kg/day at the maximum

Setting [1] is: P388, ip, T/C %, Day 1 and Day 5, P-388 10⁶ cells/mouse i.p., read-out: Ratio of Life Prolongation (%).
Where [2] appears, read: P388, ip, T/C %, dosage 12.5 mg/kg, Day 1 and Day 5, P-388 10⁶ cells/mouse i.p., read-out: Ratio of Life Prolongation (%).
Setting [3] is: P388, ip, T/C %, dosage 25 mg/kg, Day 1 and Day 5, P-388 10⁶ cells/mouse i.p., read-out: Ratio of Life Prolongation (%).
The mark [4] stands for this setting: P388, ip, T/C %, dosage 50 mg/kg, Day 1 and Day 5, P-388 10⁶ cells/mouse i.p., read-out: Ratio of Life Prolongation (%).
Setting [5] is: P388, ip, T/C %, dosage 100 mg/kg, Day 1 and Day 5, P-388 10⁶ cells/mouse i.p., read-out: Ratio of Life Prolongation (%).
Setting [6] is: P388, ip, T/C %, dosage 200 mg/kg, Day 1 and Day 5, P-388 10⁶ cells/mouse i.p., read-out: Ratio of Life Prolongation (%).
[7] abbreviates: P388, ip, T/C %, dosage 400 mg/kg, Day 1 and Day 5, P-388 10⁶ cells/mouse i.p., read-out: Ratio of Life Prolongation (%).

As for `COc1cc(NS(C)(=O)=O)ccc1Nc1c2cccc(C)c2nc2c1[nH]c1cccc(C)c12` [Compound 10, 6-(4-methanesulfonamide-2-methoxyanilino)-1,10-dimethylindolo[3,2-b]quinoline], in the experiment on KB Cell, the IC50 is under 0.3 µg/mL. For the same compound, in the experiment with P-388 (setting [1]), the response vs control in vivo at 3.12 mg/kg amounted to 109% and the response vs control in vivo at 6.25 mg/kg is 145%. For the same compound, the response vs control in vivo at 12.5 mg/kg with P-388 (setting [2]) amounted to 165%. In the experiment with P-388 (setting [3]), the response vs control in vivo at 25 mg/kg amounted to 203%. The response vs control in vivo at 50 mg/kg in the experiment on P-388 (setting [4]) was 223%. Also, the response vs control in vivo at 100 mg/kg in the experiment on P-388 (setting [5]) came out at 260%. In the experiment with P-388 (dosage 100 mg/kg), the cure was 1/6.

As to `COc1cc(NS(C)(=O)=O)ccc1Nc1c2cccc(C)c2nc2c1[nH]c1cc(C)ccc12` [Compound 11, 6-(4-methanesulfonamide-2-methoxyanilino)-3,10-dimethylindolo[3,2-b]quinoline], the IC50 in the experiment on KB Cell is under 0.3 µg/mL. For the same compound, the response vs control in vivo at 12.5 mg/kg in the experiment on P-388 (setting [2]) was found to be 315%. Moreover, in the experiment with P-388 (setting [3]), the response vs control in vivo at 25 mg/kg stood at 294%. Further, in the experiment with P-388 (setting [4]), the response vs control in vivo at 50 mg/kg stood at 315%. For the same compound, the cure with P-388 (dosage 12.5 mg/kg) is given as 1/6; in the experiment on P-388 (dosage 25 mg/kg) it was 2/6; in the experiment on P-388 (dosage 50 mg/kg) it was 1/6.

In the case of `COC(=O)Nc1ccc(Nc2c3ccccc3nc3c2[nH]c2ccccc23)c(OC)c1` [Compound 14], the IC50 with KB Cell is under 0.3 µg/mL. In addition, the response vs control in vivo at 50 mg/kg in the experiment with P-388 (setting [4]) worked out at 282%. In addition, the response vs control in vivo at 100 mg/kg in the experiment on P-388 (setting [5]) stood at 266%. Besides, the response vs control in vivo at 200 mg/kg with P-388 (setting [6]) came out at 221%. Besides, the cure in the experiment with P-388 (dosage 100 mg/kg) is 1/6.

Turning to `CN(C)c1cc(NS(C)(=O)=O)ccc1Nc1c2c(nc3ccccc13)-c1ccccc1C2` [Compound 6, 6-(4-methanesulfonamide-2-dimethylaminoanilino)-indeno[3,2-b]quinoline], in the experiment on KB Cell, the IC50 was under 0.3 µg/mL. For the same compound, the response vs control in vivo at 100 mg/kg with P-388 (setting [5]) was 169%. In the experiment with P-388 (setting [6]), the response vs control in vivo at 200 mg/kg amounted to 247%. The response vs control in vivo at 400 mg/kg in the experiment on P-388 (setting [7]) turned out to be 148%. For the same compound, the cure in the experiment with P-388 (dosage 200 mg/kg) is 2/6.

Regarding `COc1cc(NS(C)(=O)=O)ccc1Nc1c2ccccc2nc2c1[nH]c1cccc(C)c12` [Compound 16, 6-(4-methanesulfonamide-2-methoxyanilino)-1-methylindolo[3,2-b]quinoline], the IC50 in the experiment on KB Cell was under 0.3 µg/mL. For the same compound, the response vs control in vivo at 12.5 mg/kg in the experiment on P-388 (setting [2]) was 240%. The response vs control in vivo at 25 mg/kg in the experiment on P-388 (setting [3]) was 288%. In addition, the response vs control in vivo at 50 mg/kg in the experiment with P-388 (setting [4]) turned out to be 269%. For the same compound, the cure in the experiment with P-388 (dosage 12.5 mg/kg) and in the experiment with P-388 (dosage 25 mg/kg) was 2/6 in each case.

Take `COc1cc(NS(C)(=O)=O)ccc1Nc1c2ccccc2nc2c1oc1cc(C)ccc12` [Compound 31, 6-(4-methanesulfonamide-2-methoxyanilino)-3-methylbenzofurano[3,2-b]quinoline]: the IC50 in the experiment with KB Cell was under 0.3 µg/mL. Further, the response vs control in vivo at 100 mg/kg in the experiment on P-388 (setting [5]) is 147%. In the experiment with P-388 (setting [6]), the response vs control in vivo at 200 mg/kg is 175%. Also, in the experiment with P-388 (setting [7]), the response vs control in vivo at 400 mg/kg was determined as 219%. Also, the cure in the experiment with P-388 (dosage 200 mg/kg) and in the experiment with P-388 (dosage 400 mg/kg) was 1/6 each time.

In the case of `COc1cc(O)ccc1Nc1c2ccccc2nc2c1[nH]c1ccccc12` [Compound 20], in the experiment on KB Cell, the IC50 was under 0.3 µg/mL. In addition, in the experiment on P-388 (setting [2]), the response vs control in vivo at 12.5 mg/kg turned out to be 179%. Also, the response vs control in vivo at 25 mg/kg with P-388 (setting [3]) stood at 131%. Besides, in the experiment with P-388 (dosage 25 mg/kg), the cure is reported as 1/6.

With `COc1cc(NS(C)(=O)=O)ccc1Nc1c2ccccc2nc2c1[nH]c1ccc(NC3OC(CO)C(O)C(O)C3O)cc12` (centres unmarked) [Compound 24, N-{4-[(7-(glycosyl-1-amino)-10H-indolo[3,2-b]quinoline-11-yl)amino]-3-methoxyphenyl} methanesulfonamide], in the experiment with KB Cell, the IC50 was under 0.3 µg/mL. In the experiment on P-388 (setting [2]), the response vs control in vivo at 12.5 mg/kg came out at 213%. Further, the response vs control in vivo at 25 mg/kg in the experiment with P-388 (setting [3]) was found to be 145%. The response vs control in vivo at 50 mg/kg with P-388 (setting [4]) stood at 90%. Further, in the experiment with P-388 (dosage 12.5 mg/kg), the cure is given as 2/6.

Turning to `COc1cc(NS(C)(=O)=O)ccc1Nc1c2cccc(C)c2nc2c1[nH]c1ccccc12` [Compound 9], the IC50 with KB Cell was under 0.3 µg/mL. In addition, the response vs control in vivo at 1.56 mg/kg in the experiment on P-388 (P388, ip, T/C %, dosage 1.56 mg/kg, Day 1 and Day 5, P-388 10⁶ cells/mouse i.p., read-out: Ratio of Life Prolongation (%)) worked out at 131%. In addition, in the experiment on P-388 (setting [1]), the response vs control in vivo at 3.12 mg/kg is 165% and the response vs control in vivo at 6.25 mg/kg was 168%. Further, the response vs control in vivo at 12.5 mg/kg in the experiment with P-388 (setting [2]) is 198%. In addition, the response vs control in vivo at 25 mg/kg in the experiment on P-388 (setting [3]) was determined as 235%. Moreover, the response vs control in vivo at 50 mg/kg with P-388 (setting [4]) amounted to 305%. Besides, in the experiment on P-388 (dosage 25 mg/kg), the cure was 1/6. Also, the cure in the experiment on P-388 (dosage 50 mg/kg) is given as 4/6.

Take `COc1cc(NS(C)(=O)=O)ccc1Nc1c2ccccc2nc2c1[nH]c1ccc(NC3OC(COC(C)=O)C(OC(C)=O)C(OC(C)=O)C3OC(C)=O)cc12` (centres unmarked) [Compound 23, N-{4-[(7-(2,3,4,6-tetra-O-acetylglycosyl-1-amino)-10H-indolo[3,2-b]quinoline-11-yl)amino]-3-methoxyphenyl} methanesulfonamide]: in the experiment on KB Cell, the IC50 is under 0.3 µg/mL. For the same compound, the response vs control in vivo at 12.5 mg/kg in the experiment on P-388 (setting [2]) was determined as 300%. In addition, the response vs control in vivo at 25 mg/kg with P-388 (setting [3]) worked out at 148%. For the same compound, the response vs control in vivo at 50 mg/kg in the experiment on P-388 (setting [4]) was determined as 58%. For the same compound, the cure with P-388 (dosage 12.5 mg/kg) is listed as 2/6; with P-388 (dosage 25 mg/kg), 1/6.

As to `COc1cc(NCC(=O)O)ccc1Nc1c2c(nc3ccccc13)-c1ccccc1C2` [Compound 8], the IC50 with KB Cell is under 0.3 µg/mL. Moreover, the response vs control in vivo at 100 mg/kg in the experiment on P-388 (setting [5]) turned out to be 175%. For the same compound, in the experiment with P-388 (setting [6]), the response vs control in vivo at 200 mg/kg was 178%. For the same compound, in the experiment with P-388 (setting [7]), the response vs control in vivo at 400 mg/kg was 155%.

For the compound `COc1cc(NS(C)(=O)=O)ccc1Nc1c2c(nc3c(C)cccc13)-c1c(C)cccc1C2` [Compound 1, 6-4-(methanesulfonamide-2-methoxyanilino)-1,10-dimethylindeno[3,2-b]quinoline], the IC50 in the experiment on KB Cell is under 0.3 µg/mL. Besides, the response vs control in vivo at 50 mg/kg with P-388 (setting [4]) is 210%. In addition, in the experiment with P-388 (setting [5]), the response vs control in vivo at 100 mg/kg came out at 290%. The response vs control in vivo at 200 mg/kg in the experiment with P-388 (setting [6]) came out at 240%. Besides, the cure with P-388 (dosage 100 mg/kg) and in the experiment on P-388 (dosage 200 mg/kg) was 1/6 in each case.
